What was measured:
[1] = Stability of formulations (e.g. aqueous suspension concentrates) comprising the solid form; type: physicochemical; conditions: compared between forms
[2] = Stability of the crystalline modification with regard to conversion into another form; conditions: for stability of the crystalline modification: solid forms of topramezone compared
[3] = Stability of the solvate at room temperature (release of solvent, conversion); type: physicochemical
Method: Crystallization of topramezone by evaporation of a solution of topramezone in a mixture of toluene with dichloromethane in the volume ratio 2:1 at temperatures below 30° C., in particular at temperatures in the range from 10 to 30° C. yields an unstable solvate V-S, which comprises 1 mol of toluene per mol of topramezone.
Crystallization of topramezone by evaporation of a solution of topramezone in a mixture of chlorobenzene with dichloromethane at temperatures below 30° C., in particular at temperatures in the range from 10 to 30° C. yields an unstable solvate VI-S, which comprises 1 mol of chlorobenzene per mol of topramezone.
Crystallization of topramezone by evaporation of a solution of topramezone in dichloromethane at temperatures below 30° C., in particular at temperatures in the range from 10 to 30° C. yields an unstable solvate VII-S, which comprises dichloromethane.

Row | SMILES | stability of formulations which comprise the form [1] | stability of the crystalline modification [2] | further results
1 | Cc1c(C(=O)c2cnn(C)c2O)ccc(S(C)(=O)=O)c1C1=NOCC1 [form I, [3-(4,5-dihydro-3-isoxazolyl)-2-methyl-4-(methylsulfonyl)phenyl]-(5-hydroxy-1-methyl-1H-pyrazol-4-yl)methanone] | markedly higher | stable | stability with regard to conversion into another form ([2]; compared to other solid forms): increased stability
2 | Cc1c(C(=O)c2cnn(C)c2O)ccc(S(C)(=O)=O)c1C1=NOCC1 [form II, [3-(4,5-dihydro-3-isoxazolyl)-2-methyl-4-(methylsulfonyl)phenyl]-(5-hydroxy-1-methyl-1H-pyrazol-4-yl)methanone] | lower stability | lower stability | 
3 | Cc1c(C(=O)c2cnn(C)c2O)ccc(S(C)(=O)=O)c1C1=NOCC1 [form VIII, [3-(4,5-dihydro-3-isoxazolyl)-2-methyl-4-(methylsulfonyl)phenyl]-(5-hydroxy-1-methyl-1H-pyrazol-4-yl)methanone] | lower stability | lower stability | 
4 | Cc1c(C(=O)c2cnn(C)c2O)ccc(S(C)(=O)=O)c1C1=NOCC1 [form IV, [3-(4,5-dihydro-3-isoxazolyl)-2-methyl-4-(methylsulfonyl)phenyl]-(5-hydroxy-1-methyl-1H-pyrazol-4-yl)methanone] | lower stability | lower stability | 
5 | Cc1c(C(=O)c2cnn(C)c2O)ccc(S(C)(=O)=O)c1C1=NOCC1 [form VI-S] |  | lower stability | stability of formulations which comprise the form ([1]; listed as solvate VI-S): lower stability; behaviour of the solvate at room temperature ([3]; listed as solvate VI-S): releasing the solvent again and then forms the form II
6 | Cc1c(C(=O)c2cnn(C)c2O)ccc(S(C)(=O)=O)c1C1=NOCC1 [form III, [3-(4,5-dihydro-3-isoxazolyl)-2-methyl-4-(methylsulfonyl)phenyl]-(5-hydroxy-1-methyl-1H-pyrazol-4-yl)methanone] | lower stability | lower stability | 
7 | Cc1c(C(=O)c2cnn(C)c2O)ccc(S(C)(=O)=O)c1C1=NOCC1 [form V-S] |  | lower stability | stability of formulations which comprise the form ([1]; listed as solvate V-S): lower stability; behaviour of the solvate at room temperature ([3]; listed as solvate V-S): releasing the solvent again and then forms a mixture of the forms II and IV
8 | Cc1c(C(=O)c2cnn(C)c2O)ccc(S(C)(=O)=O)c1C1=NOCC1 [form VII-S] |  | lower stability | stability of formulations which comprise the form ([1]; listed as solvate VII-S): lower stability; behaviour of the solvate at room temperature ([3]; listed as solvate VII-S): releasing the solvent again and then forms the form I
